# Assay results: ChEMBL document CHEMBL2380212, “Synthesis, single crystal and antitumor activities of benzimidazole-quinazoline hybrids” (Bioorg Med Chem Lett, 2013)
# Tests used:
# Format in all cases: functional
# [1] = test system: MDA-MB-468; assay: Cytotoxicity against human MDA-MB-468 cells at 10 uM after 48 hrs by SRB assay; details: MDA-MB-468, 48 h, read-out: GI
# [2] = test system: BT-549; assay: Cytotoxicity against human BT549 cells at 10 uM after 48 hrs by SRB assay; details: BT-549, 48 h, read-out: GI
# [3] = test system: T47D; assay: Cytotoxicity against human T47D cells at 10 uM after 48 hrs by SRB assay; details: read-out: GI
# [4] = test system: MCF7; assay: Cytotoxicity against human MCF7 cells at 10 uM after 48 hrs by SRB assay; details: MCF7, 48 h, read-out: GI
# [5] = test system: DU-145; assay: Cytotoxicity against human DU145 cells at 10 uM after 48 hrs by SRB assay; details: DU-145, 48 h, read-out: GI
# [6] = test system: UO-31; assay: Cytotoxicity against human UO31 cells at 10 uM after 48 hrs by SRB assay; details: UO-31, 48 h, read-out: GI
# [7] = test system: PC-3; assay: Cytotoxicity against human PC3 cells at 10 uM after 48 hrs by SRB assay; details: PC-3, 48 h, read-out: GI
# [8] = test system: TK-10; assay: Cytotoxicity against human TK10 cells at 10 uM after 48 hrs by SRB assay; details: TK-10, 48 h, read-out: GI
# [9] = test system: RXF 393; assay: Cytotoxicity against human RXF393 cells at 10 uM after 48 hrs by SRB assay; details: RXF 393, 48 h, read-out: GI
# [10] = test system: CAKI-1; assay: Cytotoxicity against human Caki1 cells at 10 uM after 48 hrs by SRB assay; details: CAKI-1, 48 h, read-out: GI
# [11] = test system: ACHN; assay: Cytotoxicity against human ACHN cells at 10 uM after 48 hrs by SRB assay; details: read-out: GI
# [12] = test system: A498; assay: Cytotoxicity against human A498 cells at 10 uM after 48 hrs by SRB assay; details: A498, 48 h, read-out: GI
# [13] = test system: 786-0; assay: Cytotoxicity against human 786-0 cells at 10 uM after 48 hrs by SRB assay; details: 786-0, 48 h, read-out: GI
# [14] = test system: NCI/ADR-RES; assay: Cytotoxicity against human NCI/ADR-RES cells at 10 uM after 48 hrs by SRB assay; details: read-out: GI
# [15] = test system: OVCAR-4; assay: Cytotoxicity against human OVCAR4 cells at 10 uM after 48 hrs by SRB assay; details: OVCAR-4, 48 h, read-out: GI
# [16] = test system: OVCAR-3; assay: Cytotoxicity against human OVCAR3 cells at 10 uM after 48 hrs by SRB assay; details: OVCAR-3, 48 h, read-out: GI
# [17] = test system: UACC-62; assay: Cytotoxicity against human UACC62 cells at 10 uM after 48 hrs by SRB assay; details: UACC-62, 48 h, read-out: GI
# [18] = test system: UACC-257; assay: Cytotoxicity against human UACC257 cells at 10 uM after 48 hrs by SRB assay; details: UACC-257, 48 h, read-out: GI
# [19] = test system: SK-MEL-28; assay: Cytotoxicity against human SK-MEL-28 cells at 10 uM after 48 hrs by SRB assay; details: SK-MEL-28, 48 h, read-out: GI
# [20] = test system: SK-MEL-5; assay: Cytotoxicity against human SK-MEL-5 cells at 10 uM after 48 hrs by SRB assay; details: SK-MEL-5, 48 h, read-out: GI
# [21] = test system: SK-MEL-2; assay: Cytotoxicity against human SK-MEL-2 cells at 10 uM after 48 hrs by SRB assay; details: SK-MEL-2, 48 h, read-out: GI
# [22] = test system: M14; assay: Cytotoxicity against human M14 cells at 10 uM after 48 hrs by SRB assay; details: M14, 48 h, read-out: GI
# [23] = test system: LOX IMVI; assay: Cytotoxicity against human LOXIMVI cells at 10 uM after 48 hrs by SRB assay; details: read-out: GI
# [24] = test system: SNB-19; assay: Cytotoxicity against human SNB19 cells at 10 uM after 48 hrs by SRB assay; details: SNB-19, 48 h, read-out: GI
# [25] = test system: SF-295; assay: Cytotoxicity against human SF295 cells at 10 uM after 48 hrs by SRB assay; details: SF-295, 48 h, read-out: GI
# [26] = test system: SF-539; assay: Cytotoxicity against human SF539 cells at 10 uM after 48 hrs by SRB assay; details: SF-539, 48 h, read-out: GI
# [27] = test system: SF-268; assay: Cytotoxicity against human SF268 cells at 10 uM after 48 hrs by SRB assay; details: SF-268, 48 h, read-out: GI
# [28] = test system: SW-620; assay: Cytotoxicity against human SW620 cells at 10 uM after 48 hrs by SRB assay; details: SW-620, 48 h, read-out: GI
# [29] = test system: HT-29; assay: Cytotoxicity against human HT-29 cells at 10 uM after 48 hrs by SRB assay; details: HT-29, 48 h, read-out: GI
# [30] = test system: HCT-15; assay: Cytotoxicity against human HCT15 cells at 10 uM after 48 hrs by SRB assay; details: HCT-15, 48 h, read-out: GI
# [31] = test system: HCT-116; assay: Cytotoxicity against human HCT116 cells at 10 uM after 48 hrs by SRB assay; details: HCT-116, 48 h, read-out: GI
# [32] = test system: HCC 2998; assay: Cytotoxicity against human HCC2998 cells at 10 uM after 48 hrs by SRB assay; details: HCC 2998, 48 h, read-out: GI
# [33] = test system: NCI-H522; assay: Cytotoxicity against human NCI-H522 cells at 10 uM after 48 hrs by SRB assay; details: NCI-H522, 48 h, read-out: GI
# [34] = test system: NCI-H322M; assay: Cytotoxicity against human NCI-H322M cells at 10 uM after 48 hrs by SRB assay; details: read-out: GI
# [35] = test system: NCI-H226; assay: Cytotoxicity against human NCI-H226 cells at 10 uM after 48 hrs by SRB assay; details: NCI-H226, 48 h, read-out: GI
# [36] = test system: HOP-62; assay: Cytotoxicity against human HOP62 cells at 10 uM after 48 hrs by SRB assay; details: HOP-62, 48 h, read-out: GI
# [37] = Cytotoxicity against human EKVX cells at 10 uM after 48 hrs by SRB assay; details: read-out: GI
# [38] = test system: A549; assay: Cytotoxicity against human A549 cells at 10 uM after 48 hrs by SRB assay; details: A549, 48 h, read-out: GI
# [39] = test system: SR; assay: Cytotoxicity against human SR cells at 10 uM after 48 hrs by SRB assay; details: read-out: GI
# [40] = test system: MOLT-4; assay: Cytotoxicity against human MOLT4 cells at 10 uM after 48 hrs by SRB assay; details: MOLT-4, 48 h, read-out: GI
# [41] = test system: RPMI-8226; assay: Cytotoxicity against human RPMI8226 cells at 10 uM after 48 hrs by SRB assay; details: RPMI-8226, 48 h, read-out: GI
# [42] = test system: HL-60(TB); assay: Cytotoxicity against human HL-60(TB) cells at 10 uM after 48 hrs by SRB assay; details: HL-60, 48 h, read-out: GI
compound,measurement,setting,value
C=CCn1c(C)nc2cc(Nc3nc(Cl)nc4ccccc34)ccc21,inhibition of growth at 10 µM,[1],19.1%
same,inhibition of growth at 10 µM,[2],< 10%
same,inhibition of growth at 10 µM,[3],21.3%
same,inhibition of growth at 10 µM,[4],< 10%
same,inhibition of growth at 10 µM,[5],< 10%
same,inhibition of growth at 10 µM,[6],10.3%
same,inhibition of growth at 10 µM,[7],19.5%
same,inhibition of growth at 10 µM,[8],< 10%
same,inhibition of growth at 10 µM,[9],< 10%
same,inhibition of growth at 10 µM,[10],16.9%
same,inhibition of growth at 10 µM,[11],< 10%
same,inhibition of growth at 10 µM,[12],31.5%
same,inhibition of growth at 10 µM,[13],< 10%
same,inhibition of growth at 10 µM,[14],10.5%
same,inhibition of growth at 10 µM,[15],< 10%
same,inhibition of growth at 10 µM,[16],< 10%
same,inhibition of growth at 10 µM,[17],10.2%
same,inhibition of growth at 10 µM,[18],< 10%
same,inhibition of growth at 10 µM,[19],< 10%
same,inhibition of growth at 10 µM,[20],< 10%
same,inhibition of growth at 10 µM,[21],< 10%
same,inhibition of growth at 10 µM,[22],< 10%
same,inhibition of growth at 10 µM,[23],< 10%
same,inhibition of growth at 10 µM,[24],< 10%
same,inhibition of growth at 10 µM,[25],10.3%
same,inhibition of growth at 10 µM,[26],< 10%
same,inhibition of growth at 10 µM,[27],< 10%
same,inhibition of growth at 10 µM,[28],< 10%
same,inhibition of growth at 10 µM,[29],< 10%
same,inhibition of growth at 10 µM,[30],< 10%
same,inhibition of growth at 10 µM,[31],< 10%
same,inhibition of growth at 10 µM,[32],< 10%
same,inhibition of growth at 10 µM,[33],< 10%
same,inhibition of growth at 10 µM,[34],< 10%
same,inhibition of growth at 10 µM,[35],17.8%
same,inhibition of growth at 10 µM,[36],< 10%
same,inhibition of growth at 10 µM,[37],17.2%
same,inhibition of growth at 10 µM,[38],< 10%
same,inhibition of growth at 10 µM,[39],< 10%
same,inhibition of growth at 10 µM,[40],< 10%
same,inhibition of growth at 10 µM,[41],22.3%
same,inhibition of growth at 10 µM,[42],< 10%
C=CCn1c(C)nc2ccc(Nc3nc(N4CCCC4)nc4ccccc34)cc21,inhibition of growth at 10 µM,[1],< 10%
same,inhibition of growth at 10 µM,[2],13.1%
same,inhibition of growth at 10 µM,[3],< 10%
same,inhibition of growth at 10 µM,[4],38.1%
same,inhibition of growth at 10 µM,[5],26.2%
same,inhibition of growth at 10 µM,[6],31.9%
same,inhibition of growth at 10 µM,[7],< 10%
same,inhibition of growth at 10 µM,[8],< 10%
same,inhibition of growth at 10 µM,[9],47.6%
same,inhibition of growth at 10 µM,[10],15%
same,inhibition of growth at 10 µM,[11],< 10%
same,inhibition of growth at 10 µM,[12],28.5%
same,inhibition of growth at 10 µM,[13],24%
same,inhibition of growth at 10 µM,[14],16.7%
same,inhibition of growth at 10 µM,[15],< 10%
same,inhibition of growth at 10 µM,[16],< 10%
same,inhibition of growth at 10 µM,[17],< 10%
same,inhibition of growth at 10 µM,[18],< 10%
same,inhibition of growth at 10 µM,[19],19.8%
same,inhibition of growth at 10 µM,[20],37.6%
same,inhibition of growth at 10 µM,[21],< 10%
same,inhibition of growth at 10 µM,[22],10.3%
same,inhibition of growth at 10 µM,[23],97.5%
same,inhibition of growth at 10 µM,[24],< 10%
same,inhibition of growth at 10 µM,[25],16.3%
same,inhibition of growth at 10 µM,[26],< 10%
same,inhibition of growth at 10 µM,[27],13.1%
same,inhibition of growth at 10 µM,[28],24.9%
same,inhibition of growth at 10 µM,[29],94.3%
same,inhibition of growth at 10 µM,[30],20.6%
same,inhibition of growth at 10 µM,[31],80.3%
same,inhibition of growth at 10 µM,[32],76.6%
same,inhibition of growth at 10 µM,[33],< 10%
same,inhibition of growth at 10 µM,[34],< 10%
same,inhibition of growth at 10 µM,[35],< 10%
same,inhibition of growth at 10 µM,[36],< 10%
same,inhibition of growth at 10 µM,[37],< 10%
same,inhibition of growth at 10 µM,[38],25.4%
same,inhibition of growth at 10 µM,[39],94.2%
same,inhibition of growth at 10 µM,[40],50%
same,inhibition of growth at 10 µM,[41],45%
same,inhibition of growth at 10 µM,[42],11.5%
